According to ChEMBL document CHEMBL5725609, “1H-pyrazolo[3,4-b]pyridines and therapeutic uses thereof” (2018):
Values joined by “and” are separate entries in the source; they are usually repeats but may differ in a detail not shown here. Equal values may be shown once.

Assay: Wnt APC Inhibition Assay: Reporter cell lines can be generated by stably transducing cells of cancer cell lines (e.g., colon cancer) with a lentiviral construct that include a wnt-responsive promoter driving expression of the firefly luciferase gene.Lentiviral constructs can be made in which the SP5 promoter, a promoter having eight TCF/LEF binding sites derived from the SP5 promoter, is linked upstream of the firefly luciferase gene. The lentiviral constructs can also include a hygromycin resistance gene as a selectable marker. The SP5 promoter construct can be used to transduce SW480 cells, a colon cancer cell line having a mutated APC gene that generates a truncated APC protein, leading to de-regulated accumulation of β-catenin. […] Compounds from a small molecule compound library can then be added to the wells in half-log dilutions using a ten micromolar top concentration. A series of control wells for each cell type receive only buffer and compound solvent. Twenty-four to forty hours after the addition of compound, reporter activity for luciferase can be assayed, for example, by addition of the BrightGlo luminescence reagent (Promega) and the Victor3 plate reader (Perkin Elmer). Readings can be normalized to DMSO only treated cells, and normalized activities can then be used in the IC50 calculations.

For `CC(C)(C)C(=O)Nc1cncc(-c2cnc3[nH]nc(-c4nc5c(-c6cccc(F)c6)cncc5[nH]4)c3c2)c1`, the IC50 was 38 nM and 6 nM.
